This note sets out measurements from US7070807B2, “Branched histidine copolymers and methods for using same” (priority 1999, dated 2006).

Ends that are not written are not given here.

This assay deals with tumor. As to the kind of experiment: Intratumoral injection of branched polymer carrier of PCI-Luc, gene expression. The format is in vivo. The following applies: injected intratumorally. The source says: FIG. 20. Comparison of the in vitro and in vivo transfection efficiencies of branched transport polymers having different lysine content. In contrast to in vitro experiments, local injection of a branched polymer with a lower lysine content enhanced transfection. A) In vitro comparison of HH-K4b and HHH-K4b as gene delivery carriers of PCI-Luc.
In place of lysine or other cationic amino acids (e.g., ornithine and arginine), other amino acids may be substituted. The preferred amino acids to be substituted for lysines are hydrophilic amino acids such as asparagine or serine.

As for “[K-H-H-H-K-H-H-H-K-H-H-H-K-H-H-H-K]4K3 (KHHHKHHHKHHHKHHHK; also: four copies on branched lysine core (K3)) [HHH-K4b, branched polymer on lysine core]”, the “efficiency as carrier of nucleic acids compared to DOTAP liposomes or HH-K4b carrier” value is on record as “much more efficient as a carrier of nucleic acids”.
